According to patent US9120779B2, “Inhibitors of HCV NS5A” (PRESIDIO PHARMACEUTICALS, INC., priority 2008, dated 2015):
Like-named read-outs stand apart in the source and are kept apart here.

Tested on: HCV genotype 1b replicon in Huh 7 cells
Assay: HCV replicon assay (luciferase readout, 1b_Huh-Luc/Neo-ET cell line)
Format: cell-based
Conditions: Hepatitis C virus, Huh-7, 72 h
How it was run: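 Inhibition expressed as percent of untreated control luciferase signal and fitted to a Hill-slope equation for EC50, with repeat determinations. Compounds were added in triplicate to Huh 7 cells stably expressing the genotype 1b luciferase replicon, with 72 h exposure.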

[1] = read-out: Inhibition of HCV genotype 1b, Table 5, 72 h incubation

Structure (SMILES) | EC50 [1] [nM] | further results
COC(=O)NC(C(=O)N1CCC[C@H]1c1ncc(-c2ccc(C34CCC(c5cnc([C@H](C)NC(=O)[C@@H](NC(=O)OC)C(C)C)[nH]5)(CC3)CC4)cc2)[nH]1)c1ccccc1 (stereo partly drawn) [compound 2105] | < 1 | 
COC(=O)N[C@H](C(=O)N1CCC[C@H]1c1ncc(-c2ccc(C34CCC(c5cnc([C@@H]6CCCN6C(=O)[C@@H](NC(=O)OC)C6CCOCC6)[nH]5)(CC3)CC4)cc2)[nH]1)C(C)C [compound 2106] | < 1 | 
COC(=O)N[C@H](C(=O)N1CCC[C@H]1c1ncc(-c2ccc(C34CCC(c5cnc([C@@H]6CCCN6C(=O)[C@@H](NC(=O)OC6CCOCC6)c6ccccc6)[nH]5)(CC3)CC4)cc2)[nH]1)C(C)C [compound 2107] | < 1 | 
COC(=O)N[C@H](C(=O)N1CCC[C@H]1c1ncc(-c2ccc(C34CCC(c5cnc([C@@H]6CCCN6C(=O)[C@H](NC(=O)OC6CCOCC6)c6ccccc6)[nH]5)(CC3)CC4)cc2)[nH]1)C(C)C [compound 2108] | < 1 | 
COC(=O)N[C@@H](C(=O)N1CCC[C@H]1c1cnc(N2CCN(c3ccc(-c4cnc([C@@H]5CCCN5C(=O)[C@H](NC(=O)OC)c5ccccc5)[nH]4)cc3)C(=O)C2)[nH]1)c1ccccc1 [compound 2113] |  | EC50 (read-out: Inhibition of HCV genotype 1b, Table 7, 72 h incubation): < 1 nM
COC(=O)N[C@H](C(=O)N1CCC[C@H]1c1ncc(C23CCC(c4ccc5c(c4)nc([C@@H]4CCCN4C(=O)[C@@H](NC(=O)OC)C(C)C)n5C)(CC2)CC3)[nH]1)C(C)C [compound 2116] |  | EC50 (read-out: Inhibition of HCV genotype 1b, Table 8, 72 h incubation): 10 to 999 nM
